Measurements reported in publication PMC12880750, “Mechanistic insights and in vivo HIV suppression by the BRD4-targeting small molecule ZL0580” (PLOS Pathogens, 2026).
Read-outs that look alike come from different tables or passages of the source.

Columns and labels:
[1] = tested on: J-Lat cells (clone 10.6); experiment: RNA-Seq differential gene expression; type: cell-based, human; details: 5 μM, 24 hours, vs. NC; p < 0.001 and log2 fold change > 1
[2] = tested on: CDK9 binding to HIV 5′-LTR in J-Lat cells (10.6); experiment: ChIP-qPCR of CDK9 binding to HIV 5'-LTR; type: cell-based, human; details: PMA (50ng/ml) + compound 5 μM, 24 hours
[3] = In vivo pharmacokinetics in ICR mice; design: species or system male ICR mice; details: mouse, plasma
Protocol: Animal experiments assessing PK and in vivo toxicity profile of ZL0580 was performed by the contracting research organization (CRO) Sundia. The studies were performed according to the NIH Guide for Care and Use of Experimental Animals. The PK studies of ZL0580 was performed using male ICR mice (18–22 g). The mice were randomly divided into two groups (n = 3). The mice of the group 1 were intravenously administrated with ZL0580 [10 mg/kg, in 10% DMSO + 10% Solutol HS 15 + 80% HP-β-CD (20%, w/v)] and the mice of the group 2 were orally administrated with ZL0580 [20 mg/kg, in 10% DMSO + 90% HP-β-CD (20%, w/v)]. Blood samples of group 1 and group 2 mice were collected at the indicated time points post treatment and put into heparinized centrifugation tubes, which were centrifuged under the condition of 6800 rpm and 4 °C for 6 min. The supernatant was collected and stored at -20 °C for further LC-MS analysis. Before the plasma concentrations (AUC) were determined, standard curves were generated with various concentrations of ZL0580 and the internal standard (IS). All PK parameters were calculated with WinNonlin 6.4 software.

[4] = In vivo toxicity study in ICR mice; design: key to Detail clinical observation during administration period (symptom number): 01. normal; 02. Cavity to observe; 03. Discolored skin; 04. Salivation; 05. Emesis; 06. Lacrimation; 07. ptosis; 08.Decreased respira tion; 09. Increased respiration; 10. anhelation; 11. Ataxia; 12. Loose stools; 13. Limb’s tremor; 14. Ey e; 15.Weakness; 16. Hyperreactivity; 17. Emaciation; 18. Whole body touch; 19. Cough; 20. At the injection site; 21. Alopecia genitalized; 22. convulsion; 23. Corna; 24. Death; key to Necropsy macroscopic (all organs examined): –: normal-; slight +; midrange ++; severe ++++; details: for Detail clinical observation during administration period (symptom number): all 10 animals (5 F, 5 M), Day 1 (twice) to Day 7; for Necropsy macroscopic (all organs examined): all organs listed
Protocol: The acute toxicity studies were performed in both male and female ICR mice. The mice were divided into 3 groups (each group, n = 10, 5 males and 5 females). Group 1 was the vehicle group without ZL0580 treatment (po, 20% DMA + 20% Solutol HS15 + 60% HP-β-CD (20%, w/v)). Group 2, and group 3 mice were orally administrated with ZL0580 at doses of 100 mg/kg and 300 mg/kg [in 20% Dimethyl Acetamide (DMA) + 20% Solutol HS15 + 60% HP-β-CD (20%, w/v)], respectively. The body weights of all mice were weighed on day 1, 3, and 7 after treatments. The mean body weights of all mice in each group were calculated, and the standard curves were generated with the mean body weights of each group mice at different recorded time points. The food consumption masses of each group mice were recorded on day 1, 2, 3, 4, and 5 after treatments. The mean food consumption of all mice in each group was calculated, and the standard curves were generated with the mean food consumption of each group at different recorded time points.

[5] = ICR mice, 100 mg/kg or 300 mg/kg daily for 7 days
[6] = ICR mice, 100 mg/kg or 300 mg/kg, end of the study

## O=C(Nc1ccc(C(F)(F)F)cc1)Nc1ccc(S(=O)(=O)N2CCC[C@H]2C(=O)Nc2ccccc2)cc1 [ZL0580]
[1]
  Downregulated genes: 104 genes
  Significantly regulated genes (total): 166 genes
  Upregulated genes: 62 genes
[2]
  Reduction of CDK9 binding relative to PMA alone: ~ 3.8 fold
[3]; male, IV, 10 mg/kg, ICR mice
  AUC(0-t): 14400 ± 3470 ng·h/mL
[3]; male, IV, 10 mg/kg, ICR mice, read-out: AUC0-∞
  AUC(0-inf): 14400 ± 3470 ng·h/mL
[3]; IV (10 mg/kg), male ICR mice
  Cmax: 19300 ± 2790 ng/mL
  MRT inf: 0.73 ± 0.12 h
  clearance: 12 mL/min/kg
  half-life: 0.91 ± 0.06 h
[3]; IV (10 mg/kg), male ICR mice, read-out: Vz
  Vd: 0.95 ± 0.28 L/kg
[3]; PO (20 mg/kg), male ICR mice
  AUC(0-t): 5590 ± 1880 ng·h/mL
  Cmax: 1470 ± 186 ng/mL
  MRT inf: 3.18 ± 1.39 h
  half-life: 2.54 ± 2.24 h
[3]; PO (20 mg/kg), male ICR mice, read-out: AUC0-inf
  AUC(0-inf): 5800 ± 2120 ng·h/mL
[4]; Group 2, 100 mg/kg PO
  Detail clinical observation during administration period (symptom number): 01
[4]; Group 2, 100 mg/kg PO, all 10 animals
  Necropsy macroscopic (all organs examined): –
[4]; Group 3, 300 mg/kg PO
  Detail clinical observation during administration period (symptom number): 01
[4]; Group 3, 300 mg/kg PO, females 801-805 shown
  Necropsy macroscopic (all organs examined): –
[4]; ICR mice, 100 mg/kg or 300 mg/kg PO daily for 7 days
  Tolerability in vivo: well tolerated
[4]; [5]
  Changes in body weights: little to no changes
  Changes in food consumption: little to no changes
[4]; [6]
  Necropsy and gross pathological examinations: no abnormalities
  Serum biochemistry: no abnormalities
[4]; ICR mice, 100 mg/kg or 300 mg/kg, throughout the study
  Clinical signs of toxicity: No clinical signs of toxicity were observed
